{
  "source": "patent US20190307843A1",
  "about": "“SINGLE DOSE METHODS FOR PREVENTING AND TREATING FUNGAL INFECTIONS” (Cidara Therapeutics, Inc., priority 2016, published 2019)",
  "key": {"[1]": {"experiment": "Pharmacokinetics of CD101 after single 30 mg/kg SC (vs IV) dose in monkeys", "type": "in vivo", "settings": "cynomolgus monkey, plasma; for half-life: 30 mg/kg", "description": "Previous toxicology studies by the IV route of administration conducted in cynomolgus monkeys have shown CD101 to be safe and well tolerated at up to at least 30 mg/kg, which generates very high systemic exposures upon initial infusion of CD101 into the bloodstream. Therefore, only local tolerability (and PK) of CD101 by SC administration required evaluation. […] Plasma concentrations were then quantified by liquid chromatography with tandem mass spectrometric detection (LC-MS/MS). Bioavailability from SC dosing was calculated by comparing the calculated area under the concentration-time profile (AUC) from SC against the AUC from IV administration of the same dose."}, "[2]": {"tested_on": "Candida albicans ATCC SC5314", "experiment": "MIC used for free drug plasma concentration over MIC, candidiasis model", "type": "cell-based"}, "[3]": {"experiment": "Pharmacokinetic profile in female rats, 10 mg/kg IV and SC", "settings": "rat, in vivo", "source_text": "The pharmacokinetic (PK) profile of CD101 in female rats (three per group) was characterized."}, "C. glabrata": {"tested_on": "C. glabrata", "experiment": "In vitro susceptibility testing (CLSI M27-A3), C. glabrata", "type": "cell-based, Candida glabrata", "settings": "Nakaseomyces glabratus, 24 h", "description": "Ten clinical Candida strains were used for the in vivo treatment studies, including four C. albicans, three C. glabrata, and three C. parapsilosis strains (Table 15). This group was selected to encompass phenotypic variability in susceptibility to triazoles and echinocandins and based on similar fitness in the animal model as defined by the amount of growth in control animals over 24 h. The organisms were maintained, grown, and quantified on Sabouraud's dextrose agar (SDA) plates.\nIn vitro susceptibility testing. All isolates were tested in accordance with the standards in CLSI document M27-A3. The MICs were determined visually after 24 h of incubation as the lowest concentration of drug that causes a significant diminution (50%) of growth compared to controls. MICs were determined on three separate occasions in duplicate."}, "[4]": {"experiment": "Single-dose plasma pharmacokinetics in mice, IP", "type": "in vivo, mouse", "settings": "IP doses of 1, 4, 16, and 64 mg/kg", "description": "Plasma from groups of three mice per time point (1, 3, 6, 12, 24, 48, and 72-h) was collected. The plasma drug concentrations were determined by liquid chromatography-tandem mass spectrometry. A noncompartmental model was used in the pharmacokinetic analysis. Elimination half-life was calculated by nonlinear least-squares technique. The area under the concentration-time curve (AUC) was calculated by the trapezoidal rule. Pharmacokinetic exposures for doses not directly measured in the PK study were estimated by linear extrapolation for higher and lower dose levels and by interpolation for dose levels within the dose range studied given the linear PK results."}, "[5]": {"experiment": "Pharmacokinetics in healthy human adults (Phase 1)", "type": "in vivo", "settings": "for AUC: human, plasma, free drug, read-out: average 24 h AUC over a 7 day period", "source_text": "The in vitro activity of CD101 was previously evaluated as part of the SENTRY international surveillance program using CLSI broth microdilution methodology (M38-A2, M27-A3; Pfaller, et al 2017). […] These susceptibility data were then compared graphically to CD101 plasma concentrations from studies in healthy adults, adjusted for plasma protein binding. Nonclinical efficacy in a murine model of Pneumocystis pneumonia were also considered to evaluate CD101 doses for clinical investigation of antifungal prophylaxis."}, "candidemia": {"tested_on": "candidemia", "experiment": "Human subject with candidemia, single intravenous dose (Example 2)", "type": "in vivo", "settings": "single dose of 50-800 mg acetate salt of CD101, intravenous infusion", "description": "A human subject is diagnosed with candidemia using standard diagnostic procedures. The subject receives treatment with a single dose of 50-800 mg (e.g., 75±25 mg, 100±25 mg, 150±50 mg, 200±50 mg, 250±50 mg, 300±50 mg, 350±50 mg, 400±50 mg, 450±50 mg, 500±100 mg, 600±100 mg, 700±100 mg, 800±100 mg, 900±50 mg, 1000 mg±100 mg, or 1100±100 mg) of the acetate salt of CD101 administered by intravenous infusion. No other antifungal treatment is provided to the subject within one to three weeks before or after administration of the single dose CD101 treatment."}, "[6]": {"tested_on": "A. fumigatus clinical isolates", "settings": "Aspergillus fumigatus clinical isolates; SENTRY, Pfaller, et al 2017; cited from earlier work"}, "[7]": {"tested_on": "Candida albicans clinical isolates", "settings": "SENTRY, Pfaller, et al 2017; cited from earlier work"}, "[8]": {"tested_on": "Aspergillus fumigatus (ATCC 13073)", "experiment": "Prophylaxis, neutropenic ICR mouse disseminated aspergillosis model, survival"}, "[9]": {"settings": "both sexes, sc, Subcutaneous 30 mg/kg"}, "[10]": {"settings": "female, animal 9707, F, 30 mg/kg SC"}, "[11]": {"settings": "male, animal 9697, M, 30 mg/kg SC"}},
  "note": "Read-outs that look alike come from different tables or passages of the source. Starred links: 1 amine or outer side, 2 acyl side, 3 side chain; linkers in the order of their positions; H or OH if unused. Positions of bridges follow the written chain, without caps; N, C: chain ends. Non-standard residues stand in square brackets, D forms with d. Residues, ends and D or L forms follow the SMILES beside them. *: point of attachment. Orn(4R-OH,5R-OCH2CH2NMe3+) = C[N+](C)(C)CCO[C@@H](N[*:3])[C@H](O)C[C@H](N[*:1])C(=O)[*:2]; pTerphenylCO(4''-OnC5H11) = CCCCCOc1ccc(-c2ccc(-c3ccc(C(=O)*)cc3)cc2)cc1; hTyr(3S-OH,4S-OH) = N[C@H](C(=O)O)[C@H](O)[C@@H](O)c1ccc(O)cc1; Pro(3S-OH,4S-Me) = C[C@H]1CN[C@H](C(=O)O)[C@H]1O; Hyp = O=C(O)[C@@H]1C[C@@H](O)CN1",
  "data": [
    {"smiles": "CCCCCOc1ccc(-c2ccc(-c3ccc(C(=O)N[C@H]4C[C@@H](O)[C@@H](OCC[N+](C)(C)C)NC(=O)[C@@H]5[C@@H](O)[C@@H](C)CN5C(=O)[C@H]([C@@H](C)O)NC(=O)[C@H]([C@H](O)[C@@H](O)c5ccc(O)cc5)NC(=O)[C@@H]5C[C@@H](O)CN5C(=O)[C@H]([C@@H](C)O)NC4=O)cc3)cc2)cc1", "note": "[CD101] ({pTerphenylCO(4''-OnC5H11)}-[Orn(4R-OH,5R-OCH2CH2NMe3+)]T[Hyp][hTyr(3S-OH,4S-OH)]T[Pro(3S-OH,4S-Me)]; lactam 1-C)", "values": [
      {"measurement": "half-life", "setting": "[1]; [9]", "value": "~124", "unit": "h"},
      {"measurement": "AUC(0-t)", "setting": "[1]; [9]", "value": 2460, "unit": "µg·h/mL"},
      {"measurement": "Cmax", "setting": "[1]; [9]", "value": 13400, "unit": "ng/mL"},
      {"measurement": "Tmax", "setting": "[1]; [9]", "value": 72, "unit": "h"},
      {"measurement": "AUC(0-inf)", "setting": "[1]; both sexes, sc, Subcutaneous 30 mg/kg, read-out: AUCinf", "value": 3520, "unit": "µg·h/mL"},
      {"measurement": "bioavailability", "setting": "[1]; both sexes, subcutaneous, SC 30 mg/kg vs IV at the same dose, 10-day period", "value": 80, "unit": "%"},
      {"measurement": "half-life", "setting": "[1]; iv, IV 30 mg/kg", "value": 49.7, "unit": "h"},
      {"measurement": "AUC(0-t)", "setting": "[1]; IV 30 mg/kg", "value": 3140, "unit": "µg·h/mL"},
      {"measurement": "Cmax", "setting": "[1]; IV 30 mg/kg", "value": 112000, "unit": "ng/mL"},
      {"measurement": "Tmax", "setting": "[1]; IV 30 mg/kg", "value": 1, "unit": "h"},
      {"measurement": "AUC(0-inf)", "setting": "[1]; IV 30 mg/kg, read-out: AUCinf", "value": 3340, "unit": "µg·h/mL"},
      {"measurement": "half-life", "setting": "[1]; female, sc, animal 9707, F, 30 mg/kg SC", "value": 171, "unit": "h"},
      {"measurement": "AUC(0-t)", "setting": "[1]; [10]", "value": 2180, "unit": "µg·h/mL"},
      {"measurement": "Cmax", "setting": "[1]; [10]", "value": 10900, "unit": "ng/mL"},
      {"measurement": "Tmax", "setting": "[1]; [10]", "value": 48, "unit": "h"},
      {"measurement": "AUC(0-inf)", "setting": "[1]; female, animal 9707, F, 30 mg/kg SC, read-out: AUCINF_obs", "value": 3760, "unit": "µg·h/mL"},
      {"measurement": "half-life", "setting": "[1]; male, sc, animal 9697, M, 30 mg/kg SC", "value": 76.2, "unit": "h"},
      {"measurement": "AUC(0-t)", "setting": "[1]; [11]", "value": 2740, "unit": "µg·h/mL"},
      {"measurement": "Cmax", "setting": "[1]; [11]", "value": 15900, "unit": "ng/mL"},
      {"measurement": "Tmax", "setting": "[1]; [11]", "value": 96, "unit": "h"},
      {"measurement": "AUC(0-inf)", "setting": "[1]; male, animal 9697, M, 30 mg/kg SC, read-out: AUCINF_obs", "value": 3280, "unit": "µg·h/mL"},
      {"measurement": "MIC", "setting": "[2]", "value": 0.03, "unit": "µg/mL"},
      {"measurement": "Tmax", "setting": "[3]; SC administration", "value": "8 to 24", "unit": "h"},
      {"measurement": "half-life", "setting": "[3]; SC, read-out: t½ (converted)", "value": 48, "unit": "h"},
      {"measurement": "bioavailability", "setting": "[3]; sc", "value": 97, "unit": "%"},
      {"measurement": "MIC", "setting": "C. glabrata; C. glabrata 5592", "value": 0.125, "unit": "µg/mL"},
      {"measurement": "MIC", "setting": "C. glabrata; C. glabrata 10956", "value": 1, "unit": "µg/mL"},
      {"measurement": "MIC", "setting": "C. glabrata; C. glabrata 35315", "value": 0.5, "unit": "µg/mL"},
      {"measurement": "elimination half-life", "setting": "[4]", "value": "29 to 41", "unit": "h"},
      {"measurement": "half-life", "setting": "[4]; mouse, plasma, ip, 64 mg/kg, read-out: elimination half-life", "value": "28 to 41", "unit": "h"},
      {"measurement": "AUC(0-inf)", "setting": "[4]; mouse, plasma", "value": "93.2 to 40500", "unit": "µg·h/mL"},
      {"measurement": "Cmax", "setting": "[4]; mouse, plasma, read-out: Peak (Cmax) levels", "value": "2600 to 76700", "unit": "ng/mL"},
      {"measurement": "free drug AUC0-168", "setting": "[5]; 200 mg dose", "value": 15.4, "unit": "µg·h/mL"},
      {"measurement": "free drug AUC0-168", "setting": "[5]; 400 mg dose", "value": 30.2, "unit": "µg·h/mL"},
      {"measurement": "time plasma concentrations above the MEC90 for A. fumigatus", "setting": "[5]; both 400 mg and 200 mg", "value": 7, "unit": "days"},
      {"measurement": "AUC", "setting": "[5]; 200 mg dose", "value": "~2.2", "unit": "µg·h/mL"},
      {"measurement": "AUC", "setting": "[5]; 400 mg dose", "value": "~4.3", "unit": "µg·h/mL"},
      {"measurement": "mean unbound plasma concentrations relative to MIC90 for C. albicans", "setting": "[5]; single dose of 400 mg, Phase 1 subjects", "value": "above the MIC90 for C. albicans for seven days"},
      {"measurement": "candidemia infection at follow-up visit", "setting": "candidemia", "value": "confirmed to be resolved"},
      {"measurement": "MEC90", "setting": "[6]", "value": 0.015, "unit": "µg/mL"},
      {"measurement": "MIC90", "setting": "[7]", "value": 0.06, "unit": "µg/mL"},
      {"measurement": "survival", "setting": "[8]; CD101 SC 5 mg/kg, 14 days", "value": "increased survival when prophylaxis was given closer to challenge"},
      {"measurement": "symptoms of infection (body weight, hunched posture, ruffled fur, immobility, hypothermia)", "setting": "[8]; CD101 SC 5, 10 and 20 mg/kg on Day −5, −3 and −1", "value": "improved"},
      {"measurement": "survival", "setting": "[8]; CD101 SC 10 and 20 mg/kg, any prophylactic treatment day, 14 days", "value": "All animals in the 10 and 20 mg/kg groups survived"},
      {"measurement": "14-day survival", "setting": "[8]; CD101 at 5 mg/kg SC administered one hour after infection", "value": "significant increase in the 14-day survival"},
      {"measurement": "survival", "setting": "[8]; prophylaxis, Doses 0 mg/kg", "value": 100, "unit": "%"},
      {"measurement": "survival", "setting": "[8]; prophylaxis, single 5 mg/kg dose given up to 5 days prior to infection", "value": "improved survival depending on day given"}
    ]}
  ]
}
